Source: patent US6716833B2, “Acetylenic α-amino acid-based sulfonamide hydroxamic acid tace inhibitors” (priority 1999, dated 2004)
Structures can show the parent of a compound that is named as a salt. Where two headings read alike, the source gives them in different places.

Columns and labels:
MMP-13 = MMP-13 (Homo sapiens, UniProt P45452); assay: MMP-13 inhibition (thiopeptide or fluorescent peptide substrate); format: biochemical
MMP-1 = target: T1, MMP-1 (Homo sapiens, UniProt P03956); assay: MMP-1 inhibition (thiopeptide or fluorescent peptide substrate); format: biochemical
T1 sequence (P03956 100-469): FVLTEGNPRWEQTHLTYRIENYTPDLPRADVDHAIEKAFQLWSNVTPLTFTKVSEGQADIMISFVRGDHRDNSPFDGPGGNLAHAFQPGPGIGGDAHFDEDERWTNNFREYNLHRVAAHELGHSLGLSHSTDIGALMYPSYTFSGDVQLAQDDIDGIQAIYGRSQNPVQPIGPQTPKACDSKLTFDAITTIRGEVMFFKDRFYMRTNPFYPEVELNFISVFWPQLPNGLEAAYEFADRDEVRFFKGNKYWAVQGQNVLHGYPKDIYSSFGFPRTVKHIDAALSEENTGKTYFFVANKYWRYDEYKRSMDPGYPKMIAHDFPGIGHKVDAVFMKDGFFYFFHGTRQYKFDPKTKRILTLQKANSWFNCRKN
Method: The enzyme activity is measured by the rate of the color increase. The thiopeptide substrate is made up fresh as a 20 mM stock in 100% DMSO and the DTNB is dissolved in 100% DMSO as a 100 mM stock and stored in the dark at room temperature. Both the substrate and DTNB are diluted together to 1 mM with substrate buffer (50 mM HEPES pH 7.5, 5 mM CaCl2) before use. The stock of enzyme is diluted with buffer (50 mM HEPES, pH 7.5, 5 mM CaCl2, 0.02% Brij) to the desired final concentration.
Alternatively, a fluorescent peptide substrate is used. In this test procedure, the peptide substrate contains a fluorescent group and a quenching group. Upon cleavage of the substrate by an MMP, the fluorescence that is generated is quantitated on the fluorescence plate reader. The assay is run in HCBC assay buffer (50 mM HEPES, pH 7.0, 5 mM Ca^+2, 0.02% Brij, 0.5% Cysteine), with human recombinant MMP-1, MMP-9, or MMP-13. […] For the assay, substrate and enzymes are diluted in HCBC buffer to the desired concentrations. Compounds are added to the 96 well plate containing enzyme and the reaction is started by the addition of substrate.
For either the thiopeptide or fluorescent peptide test procedures, the slope of the line is calculated and represents the reaction rate. The linearity of the reaction rate is confirmed (r^2>0.85). The mean (x±sem) of the control rate is calculated and compared for statistical significance (p<0.05) with drug-treated rates using Dunnett's multiple comparison test.

MMP-9 = MMP-9 (Homo sapiens, UniProt P14780); assay: MMP-9 inhibition (thiopeptide or fluorescent peptide substrate); format: biochemical
Sequence of MMP-9 (P14780 94-707): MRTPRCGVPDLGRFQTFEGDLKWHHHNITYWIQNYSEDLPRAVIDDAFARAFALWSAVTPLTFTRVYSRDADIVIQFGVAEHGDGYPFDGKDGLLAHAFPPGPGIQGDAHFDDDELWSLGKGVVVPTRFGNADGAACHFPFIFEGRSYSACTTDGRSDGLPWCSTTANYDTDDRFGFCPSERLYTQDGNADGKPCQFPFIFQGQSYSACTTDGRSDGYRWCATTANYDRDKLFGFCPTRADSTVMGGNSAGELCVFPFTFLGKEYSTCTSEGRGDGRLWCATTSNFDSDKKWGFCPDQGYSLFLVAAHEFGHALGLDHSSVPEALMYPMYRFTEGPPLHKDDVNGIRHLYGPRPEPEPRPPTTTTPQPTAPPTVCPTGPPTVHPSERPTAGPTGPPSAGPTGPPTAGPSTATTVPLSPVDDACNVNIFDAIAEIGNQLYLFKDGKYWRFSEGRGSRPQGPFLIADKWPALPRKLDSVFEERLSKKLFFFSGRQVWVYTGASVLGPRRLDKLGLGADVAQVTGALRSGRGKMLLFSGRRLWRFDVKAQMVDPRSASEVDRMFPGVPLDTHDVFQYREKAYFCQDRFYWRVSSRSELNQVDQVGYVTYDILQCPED

THP-1 cells = assay: THP-1 soluble protein assay, soluble TNF-α (ELISA); format: cell-based, human; conditions: for inhibition at 3 µM: Homo sapiens, THP-1, 3 μM, read-out: THP % Inhibition @ 3 μM
Method: Each vial of cells are cultured for about two weeks prior to being used for an assay and then are used for only 4 to 6 weeks to screen compounds.
Cell exposure to DMSO was limited to 0.1% final concentration. […] Plates are placed into an incubator set at 5% CO2 and at 37° C. After 4 hours of incubation, 300 ml/well of tissue culture supernatant (TCS) is removed for use in an TNF-α ELISA.
Percent change in each soluble protein evaluated from the “vehicle positive control” was calculated for each compound concentration with the following formula:
% Change=pg/ml (compound)−pg/ml (veh pos control)/(veh pos control)−pg/ml (veh neg control)×100
For the soluble protein (TNF-α, p75/80, p55/60, IL-8) studies under stimulated conditions, the mean pg/ml of duplicate wells were determined and the results expressed as percent change from “vehicle positive control”.

[1] = target: TNF-α converting enzyme (TACE) (Homo sapiens, UniProt P78536); assay: TACE inhibition (fluorescent peptidyl substrate); format: biochemical; conditions: read-out: TACE IC50
Sequence of TNF-α converting enzyme (TACE) (P78536 215-824, species assumed): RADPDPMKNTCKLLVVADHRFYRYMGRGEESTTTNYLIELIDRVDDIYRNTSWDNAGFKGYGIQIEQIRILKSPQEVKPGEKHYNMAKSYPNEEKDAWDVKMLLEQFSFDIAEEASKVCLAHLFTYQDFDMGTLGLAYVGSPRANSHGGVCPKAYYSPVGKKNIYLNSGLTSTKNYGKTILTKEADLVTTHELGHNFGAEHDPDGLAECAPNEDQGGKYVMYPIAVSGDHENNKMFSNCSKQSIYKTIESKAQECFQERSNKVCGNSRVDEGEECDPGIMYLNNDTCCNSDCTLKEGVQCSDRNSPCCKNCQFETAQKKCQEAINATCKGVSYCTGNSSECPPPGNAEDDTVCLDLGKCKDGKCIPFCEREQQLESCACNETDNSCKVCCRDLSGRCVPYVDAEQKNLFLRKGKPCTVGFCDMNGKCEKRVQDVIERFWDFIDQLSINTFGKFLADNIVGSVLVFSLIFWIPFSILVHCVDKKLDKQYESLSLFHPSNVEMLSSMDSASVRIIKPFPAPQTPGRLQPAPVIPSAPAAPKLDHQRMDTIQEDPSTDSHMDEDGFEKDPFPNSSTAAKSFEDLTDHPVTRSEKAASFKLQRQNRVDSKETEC

Row | Compound | IC50 (MMP-13; read-out: MMP-13 IC50) | IC50 (MMP-1; read-out: MMP-1 IC50) | IC50 (MMP-9; read-out: MMP-9 IC50) | THP % Inhibition @ 3 μM (THP-1 cells; THP-1 cells) | IC50 [1] | inhibition at 3 µM (THP-1 cells; THP-1 cells) | also measured
1 | 2-[(4-but-2-Ynylthiophenylsulfonyl)methylamino]-N-hydroxyacetamide [Example 134] | 84 nM | 4950 nM | 111 nM | 14% |  |  | 
2 | 2-[[4-Butynyloxy-phenylsulfonyl]-amino]-N-hydroxy-3-(pyridinylthio)propanamide [Example 169] | 28 nM | 1910 nM | 160 nM | 77% | 2.9 nM |  | 
3 | CC#CCOc1ccc(S(=O)(=O)NCC(=O)NO)cc1 [Example 25, 2-(4-but-2-ynyloxy-Benzenesulfonylamino)-N-hydroxy-acetamide] |  |  | 753 nM |  | 4.8 nM | 39% | MMP-1 % inhibition (10) (MMP-1; at (10), concentration unit not given): 47%(10)
4 | CC#CCOc1ccc(S(=O)(=O)NC(C(=O)NO)C(C)C)cc1 (stereo not shown) [Example 27, 2-(4-but-2-ynyloxy-Benzenesulfonylamino)-N-hydroxy-3-methyl-butyramide] |  |  |  |  | 32 nM | 75% | IC50 (MMP-13; MMP-13 IC50): 18 nM; IC50 (MMP-1; MMP-1 IC50): 2960 nM; IC50 (MMP-9; MMP-9 IC50): 42 nM
5 | CC#CCOc1ccc(S(=O)(=O)NC(C)C(=O)NO)cc1 (stereo not shown) [Example 30, 2-(4-but-2-ynyloxy-Benzenesulfonylamino)-N-hydroxy-propionamide] | 40 nM | 4390 nM | 262 nM |  | 6 nM | 60% | 
6 | CC#CCOc1ccc(S(=O)(=O)NC(C)(C)C(=O)NO)cc1 [Example 35, 2-(4-but-2-ynyloxy-Benzenesulfonylamino)-N-hydroxy-2-methyl-propionaiwde] | 396 nM |  | 1380 nM |  | 12.9 nM | 9% | 
7 | CC1(C)SCCN(S(=O)(=O)c2ccc(OCC#CCO)cc2)C1C(=O)NO (stereo not shown) [Example 61, 4-[4-(4-Hydroxy-but-2-ynyloxy)-benzenesulfonyl]-2,2-dimethyl-thiomorpholine-3-carboxylic Acid Hydroxyamide] |  |  |  |  |  |  | IC50 (MMP-13; Table 10, read-out: MMP-13 IC50): 13 nM; IC50 (MMP-1; Table 10, read-out: MMP-1 IC50): 24 nM; IC50 (MMP-9; MMP-9 IC50, Table 10): 70 nM; inhibition at 3 µM (THP-1 cells; Table 10): 89%; IC50 ([1]; Table 10): 40 nM
8 | CC#CCOc1ccc(S(=O)(=O)N[C@@H](C(=O)NO)[C@@H](C)CC)cc1 [Example 105, (2R,3S)-2-({[4-(2-Butynyloxy)phenyl]sulfonyl}amino)-N-hydroxy-3-methylpentanamide] | 52 nM | 1740 nM | 213 nM |  | 6.8 nM | 87% | 
9 | CC#CCOc1ccc(S(=O)(=O)N[C@@H](C(=O)NO)C(C)(C)C)cc1 [Example 106, (2R)-2-({[4-(2-Butynyloxy)phenyl]sulfonyl)amino)-N-hydroxy-3,3-dimethylbutanamide] | 41 nM | 880 nM | 224 nM |  | 17 nM | 91% | 
10 | CC#CCOc1ccc(S(=O)(=O)N(CC#CCN(CC)CC)C(C(=O)NO)C(C)C)cc1 (stereo not shown) [Example 126] | 36 nM | 212 nM | 149 nM | 93% | 73 nM |  | 
11 | CC#CCOc1ccc(S(=O)(=O)N[C@@H](C(=O)NO)C2CCC(O)CC2)cc1 (stereo partly drawn) [Example 129, (2R)-{[4-(2-Butynyloxy)phenyl]sulfonyl}amino-N-hydroxy-2-(4-hydroxycyclohexyl)ethanamide] | 28 nM | 1040 nM | 192 nM |  | 7.4 nM | 92% | melting point: 180 to 182 °C
12 | CN(CC(=O)NO)S(=O)(=O)c1ccc(OCC#Cc2ccc(Cl)cc2)cc1 [Example 132] | 1120 nM | > 10000 nM | 2370 nM | 27% | 1100 nM |  | 
13 | CC#CCOc1ccc(S(=O)(=O)NC2(C(=O)NO)CCCCC2)cc1 [Example 138, 1-({[4-(2-Butynyloxy)phenyl]sulfonyl}amino)-N-hydroxycyclohexanecarboxamide] | 619 nM | 5170 nM | 2170 nM |  | 27 nM | 19% | melting point: 82 to 84 °C
14 | CC#CCOc1ccc(S(=O)(=O)NC2(C(=O)NO)CCCC2)cc1 [Example 139, 1-({[4-(2-Butynyloxy)phenyl]sulfonyl}amino)-N-hydroxycyclopentanecarboxamide] | 1270 nM | > 10000 nM | 3700 nM |  | 37 nM | 26% | melting point: 66 to 68 °C
15 | CC#CCOc1ccc(S(=O)(=O)N(C)C(C(=O)NO)C(C)(C)SCCN2CCCC2C(=O)OC)cc1 (stereo not shown) [Example 145] | 2.5 nM | 18 nM | 7.1 nM | 83% | 109 nM |  | 
16 | CC#CCOc1ccc(S(=O)(=O)N(C)[C@H](CSC)C(=O)NO)cc1 [Example 154] | 5.4 nM | 47 nM | 19 nM |  | 3.3 nM | 90% | 
17 | CC#CCOc1ccc(S(=O)(=O)N[C@@H](C(=O)NO)C(C)(C)SC)cc1 [Example 158] | 30 nM | 1020 nM | 164 nM |  | 25 nM | 78% | melting point: 128 to 132 °C
18 | CC#CCOc1ccc(S(=O)(=O)NC(C(=O)NO)C(C)(C)SCc2cccnc2)cc1 (stereo not shown) [Example 161] | 7.9 nM | 476 nM | 130 nM | 81% | 6.4 nM |  | 
19 | CC#CCOc1ccc(S(=O)(=O)NC(C(=O)NO)C(C)(C)SCC(=O)O)cc1 (stereo not shown) [Example 166, tert-Butyl {[2-({[4-2-Butynyloxy)phenyl]sulfonyl}amino)-3-(hydroxyamino)-1,1-dimethyl-3-oxopropyl]sulfanyl Acetic Acid, Sodium Salt] | 241 nM | 1900 nM | 2940 nM |  |  | 55% | 
20 | CC#CCOc1ccc(S(=O)(=O)NC(CSC)C(=O)NO)cc1 (stereo not shown) [Example 167] |  | 1740 nM | 228 nM | 77% | 3.5 nM |  | 
21 | CC#CCOc1ccc(S(=O)(=O)NC(CSCc2ccccc2)C(=O)NO)cc1 (stereo not shown) [Example 168] |  | 1970 nM | 141 nM | 62% | 4.5 nM |  | 
22 | CC#CCOc1ccc(S(=O)(=O)NC(CSCCCCCCCCCC/C=C\CC)C(=O)NO)cc1 (stereo not shown) [Example 170, 2-({[4-(2-butynyloxy)phenyl]sulfonyl}amino)-N-hydroxy-3-[(Z)-11-tetradecenylsulfanyl]propanamide] | 322 nM | > 10000 nM | 1570 nM |  | 272 nM | 7% | 
23 | CC#CCOc1ccc(S(=O)(=O)N2CCN(S(C)(=O)=O)CC2C(=O)NO)cc1 (stereo not shown) [Example 227, 1-(4-but-2-ynyloxy-Benzenesulfonyl)-4-methanesulfonyi-piperazine-2-carboxylic Acid Hydroxyamide] | 6.4 nM | 96 nM | 51 nM |  |  | 81% | 
24 | CC#CCOc1ccc(S(=O)(=O)N2C[C@H](CNC(=O)OC(C)(C)C)SC(C)(C)[C@@H]2C(=O)NO)cc1 [Example 274, tert-Butyl{(2S,5S)-4-{[4-(2-butynyloxy)phenyl]sulfonyl}-5-[(hydroxyamino)carbonyl]-6,6-dimethylthiomorpholinyl}methylcarbamate] |  |  |  |  |  |  | IC50 (MMP-9; Table 11, read-out: MMP-9 IC50): 107 nM; THP % Inhibition @ 3 μM (THP-1 cells; Table 11): 84%; IC50 ([1]; Table 11): 59 nM
